From ChEMBL document CHEMBL4828759, “Targeted methylation facilitates DNA double strand breaks and enhances cancer suppression: A DNA intercalating/methylating dual-action chimera Amonafidazene” (Eur J Med Chem, 2021) come the findings set out here.

The subject of data set [1] is DNA. Description: Induction of DNA methylation in human HCT-116 cells assessed as reduction of MGMT expression at 200 uM measured after 48 hrs by Western blot assay relative to control. The data set is classed as functional, cell-based. Set-up: scale not given: the % may be the effect or the level left.
Data set [2] concerns MDA-MB-238. Description: Inhibition of DNA Topoisomerase-2 in human […] cells assessed as generation of DNA double strand breaks measuring gamma-H2AX at incubated for 24 hrs followed by drug washout and measured after 24 to 96 hrs by immunofluorescence assay. It counts as cell-based.
The subject of the next data set is A 172. Description: Cytotoxicity against human A 172 cells assessed as cell viability measured after 96 hrs by XTT assay. The data set is classed as functional, cell-based. The following applies: A 172, 96 h.
The test system of data set [3] is MDA-MB-238. Description: Cytotoxicity against human […] cells assessed as cell viability measured after 96 hrs by XTT assay. It counts as functional, cell-based.
In another data set the test system is NCI-H1299. Description: Cytotoxicity against human NCI-H1299 cells assessed as cell viability measured after 96 hrs by XTT assay. The following applies: NCI-H1299, 96 h. It counts as functional, cell-based.
In a further data set the test system is WM 266-4. Nature of the data set: Cytotoxicity against human WM 266-4 cells assessed as cell viability measured after 96 hrs by XTT assay. The data set is classed as functional, cell-based. The note with it: WM 266-4, 96 h.
Data set [4] concerns DNA. Nature of the data set: Induction of DNA methylation in human HCT-116 cells assessed as reduction of MGMT expression at 400 uM measured after 48 hrs by Western blot assay relative to control. It counts as functional, cell-based. Set-up: scale not given: the % may be the effect or the level left.
Data set [5] concerns MDA-MB-238. Description: Antitumour activity against human […] cells xenografted in athymic nude-Foxn 1nu mouse assessed as inhibition of tumour growth at 3.8 mg/kg, ip measured after 5 weeks. The data set is classed as functional, organism-based.
Data set [6] is described as follows: Drug metabolism in human MDA-MB-231 cells xenografted in athymic Balb/c mouse assessed as increase of free amonafide in tumor at 10 mg/kg, ip measured after 120 hrs by fluorescence based microscopic assay. It counts as ADME, organism-based. The following applies: in vivo.
The test system of data set [7] is MDA-MB-238. Nature of the data set: Antitumour activity against human […] cells xenografted in athymic nude-Foxn 1nu mouse assessed as inhibition of tumour growth at 1.9 mg/kg, ip measured after 5 weeks. The data set is classed as functional, organism-based.
For data set [8], the system named is MDA-MB-238. Nature of the data set: Inhibition of DNA Topoisomerase-2 in human […] cells assessed as generation of DNA double strand breaks by measuring gamma-H2AX at 2 uM incubated for 24 hrs followed by drug washout and measured after 24 hrs by immunofluorescence assay. It counts as cell-based.
For data set [9], the system named is MDA-MB-238. Description: Inhibition of DNA Topoisomerase-2 in human […] cells assessed as generation of DNA double strand breaks measuring gamma-H2AX at 2 uM incubated for 24 hrs followed by drug washout and measured after 96 hrs by immunofluorescence assay. It counts as cell-based.
Data set [10] can be described thus: Drug metabolism in human MDA-MB-231 cells assessed as increase of free amonafide in cell at 25 uM measured after 2 hrs by fluorescence based microscopic assay. The data set is classed as ADME. The note with it: mda-mb-231, 2 h.

Active and inactive are the calls of the source. No cut-off for these calls is given here.

For `Cn1nnc2c(C(N)=O)ncn2c1=O` [TEMOZOLOMIDE], the figures for the Activity with DNA [1] and with DNA [4] were 93% and 57%, respectively. Moreover, the inhibition entry in the data set with MDA-MB-238 [2] is “inactive”. Besides, the IC50 in the data set on A 172 was greater than 40 µM; with MDA-MB-238 [3], greater than 100 µM; in the data set on NCI-H1299, greater than 100 µM; with WM 266-4, greater than 100 µM.

On to `COC(=O)N(C)/N=N/c1ccc(CO)cc1`, for which the Activity in the data set with DNA [1] turned out to be 75%; in the data set on DNA [4], 48%. The half-maximal inhibitory concentration (IC50) was greater than 40 µM in the data set on A 172, greater than 100 µM in the data set on MDA-MB-238 [3], greater than 100 µM in the data set on NCI-H1299 and greater than 100 µM in the data set with WM 266-4.

`COC(=O)N(C)/N=N/c1ccc(COC(=O)Nc2cc3c4c(cccc4c2)C(=O)N(CCN(C)C)C3=O)cc1`: the result with MDA-MB-238 [5] and with MDA-MB-238 [7] was Active. For the same compound, the Drug metabolism result in data set [6] and in data set [10] was “Metabolite_Detected” each time. Moreover, the IC50 worked out at 2.73 µM in the data set with A 172, 3.02 µM in the data set on MDA-MB-238 [3], 1.79 µM in the data set on NCI-H1299 and 3.79 µM in the data set with WM 266-4. Besides, the inhibition result in the data set with MDA-MB-238 [8] and with MDA-MB-238 [9] was “Active” each time.

In the case of `COC(=O)N(C)/N=N/c1ccc(COC(=O)Nc2ccc3c4c(cccc24)C(=O)N(CCN(C)C)C3=O)cc1`, the IC50 with A 172 amounted to 7.46 µM; with MDA-MB-238 [3] it was 6.26 µM; in the data set with NCI-H1299 it was 3.61 µM; in the data set on WM 266-4, 4.86 µM.

As to `CN(C)CCN1C(=O)c2cccc3cc(N)cc(c23)C1=O` [AMONAFIDE], in the data set on MDA-MB-238 [7], the result was Active. For the same compound, the IC50 in the data set with A 172 was 23.8 µM; in the data set with MDA-MB-238 [3], 24.2 µM; in the data set with NCI-H1299, 8.84 µM; in the data set with WM 266-4 it was 6.92 µM. In addition, the inhibition result with MDA-MB-238 [8] and in the data set on MDA-MB-238 [9] was “Active” in each case.
